Assay results from patent US20240158408A1, “Nitrogen-Containing Heterocyclic Compound, Pharmaceutical Compositions thereof and Use thereof” (280 Bio, Inc., priority 2022, published 2024).
pIC50: −log10 of the molar value.

What follows are molecules tested against PI3Kα (Homo sapiens (Human), UniProt P42336) (assay: ADP-Glo Kinase Assay, PI3Kα enzyme activity inhibition). Details: ADP-Glo; ATP 25 μM; PIP2 50 μg/mL; 1 hour at room temperature.
Chain of PI3Kα (P42336 whole entry): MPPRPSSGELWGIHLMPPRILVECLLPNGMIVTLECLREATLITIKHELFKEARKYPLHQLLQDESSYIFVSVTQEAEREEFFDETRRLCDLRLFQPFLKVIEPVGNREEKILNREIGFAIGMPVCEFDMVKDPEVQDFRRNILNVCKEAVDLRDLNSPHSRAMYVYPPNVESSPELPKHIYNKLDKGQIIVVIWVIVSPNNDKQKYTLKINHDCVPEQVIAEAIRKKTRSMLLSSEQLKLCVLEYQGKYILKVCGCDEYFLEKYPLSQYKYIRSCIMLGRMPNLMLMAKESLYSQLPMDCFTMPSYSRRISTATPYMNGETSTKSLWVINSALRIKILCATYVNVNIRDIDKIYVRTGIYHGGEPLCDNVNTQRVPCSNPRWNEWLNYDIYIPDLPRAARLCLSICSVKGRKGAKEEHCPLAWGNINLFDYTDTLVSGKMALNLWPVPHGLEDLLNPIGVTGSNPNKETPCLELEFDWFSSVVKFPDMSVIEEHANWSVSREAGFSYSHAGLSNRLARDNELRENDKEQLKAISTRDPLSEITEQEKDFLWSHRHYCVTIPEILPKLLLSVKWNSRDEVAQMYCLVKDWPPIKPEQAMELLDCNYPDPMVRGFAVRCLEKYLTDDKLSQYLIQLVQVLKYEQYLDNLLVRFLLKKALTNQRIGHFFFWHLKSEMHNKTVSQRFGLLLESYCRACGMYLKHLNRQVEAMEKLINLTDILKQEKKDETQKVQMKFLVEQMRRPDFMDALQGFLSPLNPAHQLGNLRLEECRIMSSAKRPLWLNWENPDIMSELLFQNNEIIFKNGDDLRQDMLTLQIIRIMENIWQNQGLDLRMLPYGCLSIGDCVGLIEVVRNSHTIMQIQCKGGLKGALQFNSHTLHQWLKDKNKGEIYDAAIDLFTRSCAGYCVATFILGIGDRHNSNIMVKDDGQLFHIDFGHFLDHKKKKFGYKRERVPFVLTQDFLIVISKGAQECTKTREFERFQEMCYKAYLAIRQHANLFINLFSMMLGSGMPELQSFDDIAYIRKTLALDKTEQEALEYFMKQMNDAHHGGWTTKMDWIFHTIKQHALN
Chain of PI3Kα (P27986 whole entry partner): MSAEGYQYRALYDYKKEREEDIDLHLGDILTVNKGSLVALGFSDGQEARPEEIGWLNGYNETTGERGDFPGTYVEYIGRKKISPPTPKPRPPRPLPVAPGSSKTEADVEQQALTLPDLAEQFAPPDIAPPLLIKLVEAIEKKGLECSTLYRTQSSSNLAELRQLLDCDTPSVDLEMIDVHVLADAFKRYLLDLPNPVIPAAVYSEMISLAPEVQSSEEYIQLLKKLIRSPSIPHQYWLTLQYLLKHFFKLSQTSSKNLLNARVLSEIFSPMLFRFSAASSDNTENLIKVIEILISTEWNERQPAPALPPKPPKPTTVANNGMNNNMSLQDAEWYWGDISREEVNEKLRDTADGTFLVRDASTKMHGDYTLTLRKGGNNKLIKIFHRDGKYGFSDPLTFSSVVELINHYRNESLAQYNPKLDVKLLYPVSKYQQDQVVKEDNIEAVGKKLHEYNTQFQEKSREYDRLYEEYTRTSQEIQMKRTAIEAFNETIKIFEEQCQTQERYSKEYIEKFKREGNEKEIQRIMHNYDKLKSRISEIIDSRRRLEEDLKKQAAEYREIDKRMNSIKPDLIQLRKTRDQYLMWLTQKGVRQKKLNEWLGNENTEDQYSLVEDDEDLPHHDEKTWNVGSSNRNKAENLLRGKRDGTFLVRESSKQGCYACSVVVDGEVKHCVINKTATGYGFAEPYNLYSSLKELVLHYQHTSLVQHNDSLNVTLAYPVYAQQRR

Row | PI3Kaα IC50 | SMILES
1 | +++ (+++ represents IC50>10 μM) | N#Cc1cc(NC(=O)c2cc(F)cc(C(F)(F)F)c2)c2c3c1CCN3C(=O)NC2c1cc(Cl)ccc1Cl (single isomer, unassigned) [YL101-P2]
2 | ++ (++ represents 250 nM<IC50<=10 μM) | O=C(Nc1cc(-c2ccn[nH]2)c2c3c1C(c1cc(F)ccc1Cl)NC(=O)N3CC2)c1cc(F)cc(C(F)(F)F)c1 (stereo not drawn) [YL054]
3 | +++ (+++ represents IC50>10 μM) | Nc1cc(NC(=O)c2cc(F)cc(C(F)(F)F)c2)c2c3c1CCN3C(=O)NC2c1cccc2ccccc12 (stereo not drawn) [YL060]
4 | +++ (+++ represents IC50>10 μM) | O=C(Nc1cc(-c2nn(Cc3ccccc3)cc2F)c2c3c1C(c1cc(F)ccc1Cl)NC(=O)N3CC2)c1cc(F)cc(C(F)(F)F)c1 (stereo not drawn) [YL061]
5 | +++ (+++ represents IC50>10 μM) | O=C(Nc1cc(Br)c2c3c1C(c1cccc(F)c1)NC(=O)N3CC2)c1cc(F)cc(C(F)(F)F)c1 (stereo not drawn) [YL062]
6 | ++ (++ represents 250 nM<IC50<=10 μM) | O=C(Nc1cc(Br)c2c3c1C(c1cc(F)ccc1Br)NC(=O)N3CC2)c1cc(F)cc(C(F)(F)F)c1 (stereo not drawn) [YL063]
7 | +++ (+++ represents IC50>10 μM) | O=C(Nc1cc(Br)c2c3c1C(c1ccccc1Cl)NC(=O)N3CC2)c1cc(F)cc(C(F)(F)F)c1 (stereo not drawn) [YL066]
8 | +++ (+++ represents IC50>10 μM) | Cc1ncc(-c2cc(NC(=O)c3cc(F)cc(C(F)(F)F)c3)c3c4c2CCN4C(=O)NC3c2cc(F)ccc2Cl)[nH]1 (stereo not drawn) [YL067]
9 | ++ (++ represents 250 nM<IC50<=10 μM) | Cc1nc[nH]c1-c1cc(NC(=O)c2cc(F)cc(C(F)(F)F)c2)c2c3c1CCN3C(=O)NC2c1cc(F)ccc1Cl (stereo not drawn) [YL068]
10 | +++ (+++ represents IC50>10 μM) | C#Cc1cc(NC(=O)c2cc(F)cc(C(F)(F)F)c2)c2c3c1CCN3C(=O)NC2c1cc(F)ccc1Cl (stereo not drawn) [YL069]
11 | +++ (+++ represents IC50>10 μM) | Cc1cc(-c2cc(NC(=O)c3cc(F)cc(C(F)(F)F)c3)c3c4c2CCN4C(=O)NC3c2cc(F)ccc2Cl)n[nH]1 (stereo not drawn) [YL070]
12 | ++ (++ represents 250 nM<IC50<=10 μM) | O=C(Nc1cc(-c2cn[nH]c2C(F)(F)F)c2c3c1C(c1cc(F)ccc1Cl)NC(=O)N3CC2)c1cc(F)cc(C(F)(F)F)c1 (stereo not drawn) [YL071]
13 | ++ (++ represents 250 nM<IC50<=10 μM) | Cc1n[nH]c(C(F)(F)F)c1-c1cc(NC(=O)c2cc(F)cc(C(F)(F)F)c2)c2c3c1CCN3C(=O)NC2c1cc(F)ccc1Cl (stereo not drawn) [YL072]

Second part, the molecule before the results:

Row | SMILES | PI3Kaα IC50
14 | Cc1ccccc1C1NC(=O)c2cccc3ccc(NC(=O)c4csc5ccccc45)c1c23 (stereo not drawn) [YL004] | +++ (+++ represents IC50>10 μM)
15 | O=C(Nc1cc(NC(=O)C(F)(F)F)c2c3c1C(c1cc(F)ccc1Cl)NC(=O)N3CC2)c1cc(F)cc(C(F)(F)F)c1 (stereo not drawn) [YL009] | ++ (++ represents 250 nM<IC50<=10 μM)
16 | [N-]=[N+]=Nc1cc(NC(=O)c2cc(F)cc(C(F)(F)F)c2)c2c3c1CCN3C(=O)NC2c1cc(F)ccc1Cl (stereo not drawn) [YL011] | ++ (++ represents 250 nM<IC50<=10 μM)
17 | O=C(Nc1cc(N2CC(F)(F)C2)c2c3c1C(c1cc(F)ccc1Cl)NC(=O)N3CC2)c1cc(F)cc(C(F)(F)F)c1 (stereo not drawn) [YL012] | ++ (++ represents 250 nM<IC50<=10 μM)
18 | Nc1n[nH]c2ccc(-c3cc(NC(=O)c4cc(F)cc(C(F)(F)F)c4)c4c5c3CCN5C(=O)NC4c3cc(F)ccc3Cl)cc12 (stereo not drawn) [YL013] | ++ (++ represents 250 nM<IC50<=10 μM)
19 | Cn1nc(C(F)(F)F)cc1-c1cc(NC(=O)c2cc(F)cc(C(F)(F)F)c2)c2c3c1CCN3C(=O)NC2c1cc(F)ccc1Cl (stereo not drawn) [YL014] | ++ (++ represents 250 nM<IC50<=10 μM)
20 | Cn1cc(-c2cc(NC(=O)c3cc(F)cc(C(F)(F)F)c3)c3c4c2CCN4C(=O)NC3c2cc(F)ccc2Cl)cn1 (stereo not drawn) [YL015] | ++ (++ represents 250 nM<IC50<=10 μM)
21 | O=C(Nc1cc(-c2cnoc2)c2c3c1C(c1cc(F)ccc1Cl)NC(=O)N3CC2)c1cc(F)cc(C(F)(F)F)c1 (stereo not drawn) [YL018] | ++ (++ represents 250 nM<IC50<=10 μM)
22 | O=C(Nc1cc(B(O)O)c2c3c1C(c1cc(F)ccc1Cl)NC(=O)N3CC2)c1cc(F)cc(C(F)(F)F)c1 (stereo not drawn) [YL019] | ++ (++ represents 250 nM<IC50<=10 μM)
23 | Cc1cc(NC(=O)c2cc(F)cc(C(F)(F)F)c2)c2c3c1CCN3C(=O)NC2c1cc(F)ccc1Cl (stereo not drawn) [YL020] | +++ (+++ represents IC50>10 μM)
24 | O=C(Nc1cc(F)c2c3c1C(c1cc(F)ccc1Cl)NC(=O)N3CC2)c1cc(F)cc(C(F)(F)F)c1 (stereo not drawn) [YL021] | ++ (++ represents 250 nM<IC50<=10 μM)
25 | O=C(Nc1cc(NC2CC2)c2c3c1C(c1cc(F)ccc1Cl)NC(=O)N3CC2)c1cc(F)cc(C(F)(F)F)c1 (stereo not drawn) [YL022] | ++ (++ represents 250 nM<IC50<=10 μM)
26 | O=C(Nc1cc(Nc2cnn(C3CCOCC3)c2)c2c3c1C(c1cc(F)ccc1Cl)NC(=O)N3CC2)c1cc(F)cc(C(F)(F)F)c1 (stereo not drawn) [YL023] | ++ (++ represents 250 nM<IC50<=10 μM)
27 | O=C(Nc1cc(NC2COC2)c2c3c1C(c1cc(F)ccc1Cl)NC(=O)N3CC2)c1cc(F)cc(C(F)(F)F)c1 (stereo not drawn) [YL027] | ++ (++ represents 250 nM<IC50<=10 μM)
28 | O=C(Nc1cc(NC2CCOCC2)c2c3c1C(c1cc(F)ccc1Cl)NC(=O)N3CC2)c1cc(F)cc(C(F)(F)F)c1 (stereo not drawn) [YL028] | ++ (++ represents 250 nM<IC50<=10 μM)
29 | C[C@H](O)C(=O)Nc1cc(NC(=O)c2cc(F)cc(C(F)(F)F)c2)c2c3c1CCN3C(=O)NC2c1cc(F)ccc1Cl (stereo partly drawn) [YL030] | +++ (+++ represents IC50>10 μM)
30 | C[C@@H](O)C(=O)Nc1cc(NC(=O)c2cc(F)cc(C(F)(F)F)c2)c2c3c1CCN3C(=O)NC2c1cc(F)ccc1Cl (stereo partly drawn) [YL031] | +++ (+++ represents IC50>10 μM)
31 | O=C1NC(c2cc(F)ccc2Cl)c2c(-c3nc4c(F)cc(C(F)(F)F)cc4[nH]3)ccc3c2N1CC3 (stereo not drawn) [YL032] | ++ (++ represents 250 nM<IC50<=10 μM)
32 | O=C(Nc1cc(-c2c[nH]c3ncc(C(F)(F)F)cc23)c2c3c1C(c1cc(F)ccc1Cl)NC(=O)N3CC2)c1cc(F)cc(C(F)(F)F)c1 (stereo not drawn) [YL036] | ++ (++ represents 250 nM<IC50<=10 μM)
33 | O=C1NC(c2cc(F)ccc2Cl)c2c(Nc3nccc4c(C(F)(F)F)cc(F)cc34)cc(Br)c3c2N1CC3 (stereo not drawn) [YL042] | ++ (++ represents 250 nM<IC50<=10 μM)
34 | Nc1cc(-c2cc(Nc3nccc4c(C(F)(F)F)cc(F)cc34)c3c4c2CCN4C(=O)NC3c2cc(F)ccc2Cl)n[nH]1 (stereo not drawn) [YL044] | ++ (++ represents 250 nM<IC50<=10 μM)
35 | O=C1NC(c2cc(F)ccc2Cl)c2c(Nc3nccc4c(C(F)(F)F)cc(F)cc34)cc(F)c3c2N1CC3 (stereo not drawn) [YL045] | +++ (+++ represents IC50>10 μM)
36 | O=C(Nc1cc(-c2c(C(F)(F)F)n[nH]c2C2CC2)c2c3c1C(c1cc(F)ccc1Cl)NC(=O)N3CC2)c1cc(F)cc(C(F)(F)F)c1 (stereo not drawn) [YL048] | ++ (++ represents 250 nM<IC50<=10 μM)
37 | O=C(Nc1cc(-c2c(C(F)(F)F)n[nH]c2-c2ccccc2)c2c3c1C(c1cc(F)ccc1Cl)NC(=O)N3CC2)c1cc(F)cc(C(F)(F)F)c1 (stereo not drawn) [YL049] | +++ (+++ represents IC50>10 μM)
38 | O=C1NC(c2cc(F)ccc2Cl)c2c(Nc3nccc4c(C(F)(F)F)cc(F)cc34)ccc3c2N1CC3 (stereo not drawn) [YL050] | ++ (++ represents 250 nM<IC50<=10 μM)
39 | O=C1NC(c2cc(F)ccc2Cl)c2c(Nc3ncnc4c(Cl)cc(F)cc34)ccc3c2N1CC3 (stereo not drawn) [YL052] | +++ (+++ represents IC50>10 μM)
40 | Nc1cc(-c2cc(NC(=O)c3cc(F)cc(C(F)(F)F)c3)c3c4c2CCN4C(=O)NC3c2cc(F)ccc2Cl)[nH]n1 (stereo not drawn) [YL053] | ++ (++ represents 250 nM<IC50<=10 μM)
41 | O=C(Nc1cc(Br)c2c3c1C(c1ccccc1)NC(=O)N3CC2)c1cc(F)cc(C(F)(F)F)c1 (stereo not drawn) [YL064] | +++ (+++ represents IC50>10 μM)

Same assay, conditions: PI3Kaα IC50, ADP-Glo; ATP 25 μM; PIP2 50 μg/mL; 1 hour at room temperature

Row | pIC50 | SMILES
42 | < 5.00 | O=C(Nc1cc(Br)c2c3c1C(c1cc(F)ccc1Cl)NC(=O)N3CC2)c1cc(F)cc(C(F)(F)F)c1 (single isomer, unassigned) [YL079-P1]
43 | 5.00 to 6.60 | O=C(Nc1cc(Br)c2c3c1C(c1cc(F)ccc1Cl)NC(=O)N3CC2)c1cc(F)cc(C(F)(F)F)c1 (single isomer, unassigned) [YL079-P2]
44 | < 5.00 | N#Cc1cc(NC(=O)c2cc(F)cc(C(F)(F)F)c2)c2c3c1CCN3C(=O)NC2c1cc(Cl)ccc1Cl (single isomer, unassigned) [YL101-P1]
45 | < 5.00 | Cn1nc2c(C#N)cc(NC(=O)c3cc(F)cc(C(F)(F)F)c3)c3c2c1C(=O)NC3c1cc(F)ccc1Cl (single isomer, unassigned) [YL102-P2]
46 | < 5.00 | N#Cc1c(-c2cc(NC(=O)c3cc(F)cc(C(F)(F)F)c3)c3c4c2CCN4C(=O)NC3c2cc(F)ccc2Cl)ccc2ncnn12 (single isomer, unassigned) [YL108-P2]
47 | < 5.00 | N#Cc1c(-c2cc(NC(=O)c3cc(F)cc(C(F)(F)F)c3)c3c4c2CCN4C(=O)NC3c2cc(Cl)ccc2Cl)ccc2ncnn12 (single isomer, unassigned) [YL109-P2]
48 | < 5.00 | Cn1nc2c(C#N)cc(NC(=O)c3cc(F)cc(C(F)(F)F)c3)c3c2c1C(=O)NC3c1cc(Cl)ccc1Cl (single isomer, unassigned) [YL111-P2]
49 | 5.00 to 6.60 | Nc1n[nH]cc1-c1cc(NC(=O)c2cc(F)cc(C(F)(F)F)c2)c2c3c1CCN3C(=O)NC2c1cc(F)ccc1Cl (stereo not drawn) [YL073]
50 | 5.00 to 6.60 | O=C(Nc1cc(-c2c[nH]cn2)c2c3c1C(c1cc(F)ccc1Cl)NC(=O)N3CC2)c1cc(F)cc(C(F)(F)F)c1 (stereo not drawn) [YL074]
51 | 5.00 to 6.60 | O=C(Nc1cc(O)c2c3c1C(c1cc(F)ccc1Cl)NC(=O)N3CC2)c1cc(F)cc(C(F)(F)F)c1 (stereo not drawn) [YL076]
52 | 5.00 to 6.60 | Nc1cc(Nc2nccc3c(C(F)(F)F)cc(F)cc23)c2c3c1CCN3C(=O)NC2c1cc(F)ccc1Cl (stereo not drawn) [YL086]
53 | 5.00 to 6.60 | N=C(N)Nc1cc(NC(=O)c2cc(F)cc(C(F)(F)F)c2)c2c3c1CCN3C(=O)NC2c1cc(F)ccc1Cl (stereo not drawn) [YL088]
54 | 5.00 to 6.60 | Nc1cc(-c2nc3c(F)cc(C(F)(F)F)cc3[nH]2)c2c3c1CCN3C(=O)NC2c1cc(F)ccc1Cl (stereo not drawn) [YL092]
55 | 5.00 to 6.60 | Nc1cc(NC(=O)c2cc(F)cc(C(F)(F)F)c2)c2c3c1CCN3C(=O)NC2c1cc(Cl)ccc1Cl (stereo not drawn) [YL094]

Continued, molecule first:

Row | SMILES | pIC50
56 | O=C(Nc1cc(Br)c2c3c1C(c1cc(Cl)ccc1Cl)NC(=O)N3CC2)c1cc(F)cc(C(F)(F)F)c1 (stereo not drawn) [YL093] | 5.00 to 6.60
57 | Nc1cc(NC(=O)c2cc(F)cc(C(F)(F)F)c2)c2c3c1CCN3C(=O)NC2c1cc(Cl)ccc1C(F)(F)F (stereo not drawn) [YL095] | 5.00 to 6.60
